Experimental data: patent US9126952B2, “Morpholinylquinazolines” (Merck Patent GmbH, priority 2010, dated 2015)

Columns and labels:
mammal cells = conditions: Rosenzweig et al. (1999); cited from earlier work
DNA-PK = DNA-PK (Homo sapiens (Human), UniProt P78527); test: DNA-PK/biochemical assay (FlashPlate kinase assay); conditions: 5 μM ATP, 90 min, room temperature; read-out: Binding DNA-PK IC50
Method: […] To this end, 1.5 μg of the DNA-PK/protein complex and 100 ng of biotinylated substrate, such as, for example, PESQEAFADLWKK biotin-NH2 (“biotin-DNA-PK peptide”), in a total volume of 36.5 μl (34.25 mM HEPES/KOH, 7.85 mM Tris-HCl, 68.5 mM KCl, 5 μM ATP, 6.85 mM MgCl2, 0.5 mM EDTA, 0.14 mM EGTA, 0.69 mM DTT, pH 7.4), were incubated at room temperature for 90 min with 500 ng of DNA from calf thymus, 0.1 μCi of 33P-ATP and 1.8% of DMSO per well with or without the test compound. The reaction was stopped using 50 μl/well of 200 mM EDTA. After incubation for a further 30 min at room temperature, the liquid was removed. Each well was washed three times with 100 μl of 0.9% sodium chloride solution. A non-specific reaction (blank value) was determined using 10 μM of a proprietary kinase inhibitor. The radioactivity measurement was carried out by means of a TopCount. IC50 values were calculated in RS1. • Literature: Kashishian et al. (2003) Molecular Cancer Therapeutics 1257.

| SMILES | IC50 (DNA-PK) [nM] | increase in sensitivity to ionising irradiation in cellular terms (mammal cells) |
| --- | --- | --- |
| O=c1cc(N2CCOCC2)oc2c(-c3ccccc3)cccc12 [LY294002] |  | only a weak increase in sensitivity to ionising irradiation |
| c1nc(N2CCCC(CN3CCOCC3)C2)c2ccc(N3CCOCC3)cc2n1 (stereo not drawn) [compound 21, 7-Morpholin-4-yl-4-(3-morpholin-4-ylmethylpiperidin-1-yl)quinazoline] | 500 to 1000 |  |
| c1ccc2[nH]c(C3CCCN(c4ncnc5cc(N6CCOCC6)ccc45)C3)nc2c1 (stereo not drawn) [compound 24, 4-[3-(1H-Benzo-imidazol-2-yl)-piperidin-1-yl]-7-morpholin-4-yl-quinazoline] | 500 to 1000 |  |
| c1ccc2oc(C3CCCN(c4ncnc5cc(N6CCOCC6)ccc45)C3)nc2c1 (stereo not drawn) [compound 26, 4-(3-Benzoxazol-2-ylpiperidin-1-yl)-7-morpholin-4-yl-quinazoline] | 100 to 500 |  |
| FC(F)(F)c1cccc(C2CCCN(c3ncnc4cc(N5CCOCC5)ccc34)C2)c1 (stereo not drawn) [compound 28, 7-Morpholin-4-yl-4-[3-(3-trifluoromethyl-phenyl)piperidin-1-yl]quinazoline] | 100 to 500 |  |
| Cc1nc(N2CCCCC2)c2ccc(N3CCOCC3)cc2n1 [compound 34, 2-Methyl-7-morpholin-4-yl-4-piperidin-1-yl-quinazoline] | > 1000 |  |
| c1ccc2sc(CC3CCCN(c4ncnc5cc(N6CCOCC6)ccc45)C3)cc2c1 (stereo not drawn) [compound 35, 4-(3-Benzo[b]-thiophen-2-ylmethyl-piperidin-1-yl)-7-morpholin-4-yl-quinazoline] | 100 to 500 |  |
| C1=C(c2cccs2)CN(c2ncnc3cc(N4CCOCC4)ccc23)CC1 [compound 37, 7-Morpholin-4-yl-4-(5-thiophen-2-yl-3,6-dihydro-2H-pyridin-1-yl)quinazoline] | 100 to 500 |  |
| COc1nc(N2CCCCC2)c2ccc(N3CCOCC3)cc2n1 [compound 39, 2-Methoxy-7-morpholin-4-yl-4-piperidin-1-yl-quinazoline] | > 1000 |  |
| COc1ccc(CC2CCCN(c3ncnc4cc(N5CCOCC5)ccc34)C2)cc1OC (stereo not drawn) [compound 42, 4[3-(3,4-Dimethoxy-benzyl)piperidin-1-yl]-7-morpholin-4-yl-quinazoline] | 100 to 500 |  |
| c1ccc2sc(CC3CCCN(c4ncnc5cc(N6CCOCC6)ccc45)C3)nc2c1 (stereo not drawn) [compound 43, 4-(3-Benzothiazol-2-ylmethylpiperidin-1-yl)-7-morpholin-4-yl-quinazoline] | 100 to 500 |  |
| Cc1csc(C(O)C2CCCN(c3ncnc4cc(N5CCOCC5)ccc34)C2)n1 (stereo not drawn) [compound 49, (4-Methylthiazol-2-yl)-[1-(7-morpholin-4-ylquinazolin-4-yl)-piperidin-3-yl]-methanol] | < 100 |  |
| O=C(c1nccs1)C1CCCN(c2ncnc3cc(N4CCOCC4)ccc23)C1 (stereo not drawn) [compound 50, [1-(7-Morpholin-4-yl-quinazolin-4-yl)-piperidin-3-yl]-thiazol-2-yl-methanone] | < 100 |  |
| Cc1cnc(CC2CCCN(c3ncnc4cc(N5CCOCC5)ccc34)C2)s1 (stereo not drawn) [compound 51, 4-[3-(5-Methyl-thiazol-2-ylmethyl)-piperidin-1-yl]-7-morpholin-4-yl-quinazoline] | < 100 |  |
| Cc1nc(CC2CCCN(c3ncnc4cc(N5CCOCC5)ccc34)C2)sc1C (stereo not drawn) [compound 52, 4-[3-(4,5-Dimethyl-thiazol-2-ylmethyl)-piperidin-1-yl]-7-morpholin-4-yl-quinazoline] | < 100 |  |
| OC(c1ncco1)C1CCCN(c2ncnc3cc(N4CCOCC4)ccc23)C1 (stereo not drawn) [compound 53, [1-(7-Morpholin-4-yl quinazolin-4-yl)-piperidin-3-yl]-oxazol-2-yl-methanol] | < 100 |  |
| Oc1nc(N2CCCCC2)c2ccc(N3CCOCC3)cc2n1 [compound 54, 7-Morpholin-4-yl-4-piperidin-1-yl-quinazolin-2-ol] | > 1000 |  |
| Cn1ccnc1C(O)C1CCCN(c2ncnc3cc(N4CCOCC4)ccc23)C1 (stereo not drawn) [compound 55, (1-Methyl-1H-imidazol-2-yl)-[1-(7-morpholin-4-yl-quinazolin-4-yl)-piperidin-3-yl]-methanol] | 100 to 500 |  |
| Cc1csc(CC2CCCN(c3ncnc4cc(N5CCOCC5)ccc34)C2)n1 (stereo not drawn) [compound 56, 4-[3-(4-Methyl-thiazol-2-ylmethyl)-piperidin-1-yl]-7-morpholin-4-yl-quinazoline] | < 100 |  |
| Nc1nc(N2CCCCC2)c2ccc(N3CCOCC3)cc2n1 [compound 57, 7-Morpholin-4-yl-4-piperidin-1-yl-quinazolin-2-ylamine] | 500 to 1000 |  |
| N#Cc1nc(N2CCCCC2)c2ccc(N3CCOCC3)cc2n1 [compound 58, 7-Morpholin-4-yl-4-piperidin-1-yl-quinazoline-2-carbonitrile] | 100 to 500 |  |
| O=C(NC1CCCN(c2nc(Cl)nc3cc(N4CCOCC4)ccc23)C1)c1cncs1 (stereo not drawn) [compound 59] | < 100 |  |
| O=C(NC1CCCN(c2nc(Cl)nc3cc(N4CCOCC4)ccc23)C1)c1nccs1 (stereo not drawn) [compound 60, N-[1-(2-Chloro-7-morpholin-4-yl-quinazolin-4-yl)-piperidin-3-yl]-thiazole-2-carboxamide] | < 100 |  |
| O=C(NC1CCCN(c2nc(Cl)nc3cc(N4CCOCC4)ccc23)C1)c1cscn1 (stereo not drawn) [compound 61] | 100 to 500 |  |
| O=C(NC1CCCN(c2nc(Cl)nc3cc(N4CCOCC4)ccc23)C1)c1cccs1 (stereo not drawn) [compound 64, N-[1-(2-Chloro-7-morpholin-4-yl-quinazolin-4-yl)-piperidin-3-yl]-thiophene-2-carboxamide] | 100 to 500 |  |
| O[C@@H](c1nccs1)C1CCCN(c2ncnc3cc(N4CCOCC4)ccc23)C1 (stereo partly drawn) [compound 65, (R)-[1-(7-Morpholin-4-ylquinazolin-4-yl)-piperidin-3-yl]-thiazol-2-yl-methanol] | < 100 |  |
| O[C@H](c1nccs1)C1CCCN(c2ncnc3cc(N4CCOCC4)ccc23)C1 (stereo partly drawn) [compound 66] | < 100 |  |

Now from value to molecule, other results behind:

| IC50 (DNA-PK) [nM] | SMILES | increase in sensitivity to ionising irradiation in cellular terms (mammal cells) |
| --- | --- | --- |
| < 100 | COc1cccc(C2CCCN(c3ncnc4cc(N5CCOCC5)ccc34)C2)c1 (stereo not drawn) [compound 22, 4-[3-(3-Methoxy-phenyl)piperidin-1-yl]-7-morpholin-4-yl-quinazoline] |  |
| < 100 | c1cn(CC2CCCN(c3ncnc4cc(N5CCOCC5)ccc34)C2)cn1 (stereo not drawn) [compound 23] |  |
| < 100 | Clc1nc(N2CCCC(Cn3ccnc3)C2)c2ccc(N3CCOCC3)cc2n1 (stereo not drawn) [compound 25, 2-Chloro-4-(3-imidazol-1-ylmethyl-piperidin-1-yl)-7-morpholin-4-yl-quinazoline] |  |
| < 100 | Cc1cccc(C2CCCN(c3ncnc4cc(N5CCOCC5)ccc34)C2)c1 (stereo not drawn) [compound 27, 7-Morpholin-4-yl-4-(3-m-tolylpiperidin-1-yl)quinazoline] |  |
| < 100 | Cn1ccnc1CC1CCCN(c2ncnc3cc(N4CCOCC4)ccc23)C1 (stereo not drawn) [compound 29, 4-[3-(1-Methyl-1H-imidazol-2-ylmethyl)-piperidin-1-yl]-7-morpholin-4-yl-quinazoline] |  |
| < 100 | Clc1nc(N2CCCC(Cn3cccc3)C2)c2ccc(N3CCOCC3)cc2n1 (stereo not drawn) [compound 30, 2-Chloro-7-morpholin-4-yl-4-(3-pyrrol-1-ylmethyl-piperidin-1-yl)-quinazoline] |  |
| < 100 | c1cnc(CC2CCCN(c3ncnc4cc(N5CCOCC5)ccc34)C2)nc1 (stereo not drawn) [compound 31] |  |
| < 100 | c1csc(CC2CCCN(c3ncnc4cc(N5CCOCC5)ccc34)C2)n1 (stereo not drawn) [compound 32] |  |
| < 100 | c1csc(CC2CCCN(c3ncnc4cc(N5CCOCC5)ccc34)C2)c1 (stereo not drawn) [compound 33] |  |
| < 100 | Clc1nc(N2CCCC(Cc3nccs3)C2)c2ccc(N3CCOCC3)cc2n1 (stereo not drawn) [compound 36, 2-Chloro-7-morpholin-4-yl-4-(3-thiazol-2-ylmethyl-piperidin-1-yl)-quinazoline] |  |
| < 100 | COc1cccc(C(O)C2CCCN(c3ncnc4cc(N5CCOCC5)ccc34)C2)c1 (stereo not drawn) [compound 38, (3-Methoxyphenyl)-[1-(7-morpholin-4-yl-quinazolin-4-yl)-piperidin-3-yl]-methanol] |  |
| < 100 | c1csc(C2CCCN(c3ncnc4cc(N5CCOCC5)ccc34)C2)c1 (stereo not drawn) [compound 40, 7-Morpholin-4-yl-4-(3-thiophen-2-yl-piperidin-1-yl)-quinazoline] |  |
| < 100 | COc1cccc(CC2CCCN(c3ncnc4cc(N5CCOCC5)ccc34)C2)c1 (stereo not drawn) [compound 41, 4-[3-(3-Methoxy-benzyl)piperidin-1-yl]-7-morpholin-4-yl-quinazoline] |  |
| < 100 | c1nc(N2CCCC(Cc3ccsc3)C2)c2ccc(N3CCOCC3)cc2n1 (stereo not drawn) [compound 44] |  |
| < 100 | OC(c1ccsc1)C1CCCN(c2ncnc3cc(N4CCOCC4)ccc23)C1 (stereo not drawn) [compound 45, [1-(7-Morpholin-4-yl-quinazolin-4-yl)-piperidin-3-yl]-thiophen-3-yl-methanol] |  |
| < 100 | OC(c1nccs1)C1CCCN(c2ncnc3cc(N4CCOCC4)ccc23)C1 (stereo not drawn) [compound 46, [1-(7-Morpholin-4-yl-quinazolin-4-yl)-piperidin-3-yl]-thiazol-2-yl-methanol] |  |
| < 100 | Cc1cnc(C(O)C2CCCN(c3ncnc4cc(N5CCOCC5)ccc34)C2)s1 (stereo not drawn) [compound 47, (5-Methyl-thiazol-2-yl)-[1-(7-morpholin-4-ylquinazolin-4-yl)-piperidin-3-yl]-methanol] |  |
| < 100 | Cc1nc(C(O)C2CCCN(c3ncnc4cc(N5CCOCC5)ccc34)C2)sc1C (stereo not drawn) [compound 48, (4,5-Dimethyl-thiazol-2-yl)-[1-(7-morpholin-4-yl-quinazolin-4-yl)-piperidin-3-yl]-methanol] |  |
